Experimental findings from patent publication US10344060B2 (priority 2013, dated 2019) are described below.

What all share (assay): cell-based
Assay [1] concerns the target rNav1.7 (Rattus norvegicus, UniProt O08562). The note with it: for pIC50: PatchXpress, tonic block, rat Nav1.7, read-out: PX rNav1.7 Tonic IC50; for rNav1.7/hNav1.7: ratio of PX tonic IC50, rat Nav1.7 over human Nav1.7.
For assay [2], the target named is mouse Nav1.4 (Mus musculus, UniProt Q9ER60). The note with it: for pIC50: PatchXpress, tonic block, mouse Nav1.4, read-out: PX mNav1.4 Tonic IC50; for mNav1.4/mNav1.7: ratio of PX tonic IC50, mouse Nav1.4 over mouse Nav1.7.
Chain of mouse Nav1.4 (Q9ER60 whole entry): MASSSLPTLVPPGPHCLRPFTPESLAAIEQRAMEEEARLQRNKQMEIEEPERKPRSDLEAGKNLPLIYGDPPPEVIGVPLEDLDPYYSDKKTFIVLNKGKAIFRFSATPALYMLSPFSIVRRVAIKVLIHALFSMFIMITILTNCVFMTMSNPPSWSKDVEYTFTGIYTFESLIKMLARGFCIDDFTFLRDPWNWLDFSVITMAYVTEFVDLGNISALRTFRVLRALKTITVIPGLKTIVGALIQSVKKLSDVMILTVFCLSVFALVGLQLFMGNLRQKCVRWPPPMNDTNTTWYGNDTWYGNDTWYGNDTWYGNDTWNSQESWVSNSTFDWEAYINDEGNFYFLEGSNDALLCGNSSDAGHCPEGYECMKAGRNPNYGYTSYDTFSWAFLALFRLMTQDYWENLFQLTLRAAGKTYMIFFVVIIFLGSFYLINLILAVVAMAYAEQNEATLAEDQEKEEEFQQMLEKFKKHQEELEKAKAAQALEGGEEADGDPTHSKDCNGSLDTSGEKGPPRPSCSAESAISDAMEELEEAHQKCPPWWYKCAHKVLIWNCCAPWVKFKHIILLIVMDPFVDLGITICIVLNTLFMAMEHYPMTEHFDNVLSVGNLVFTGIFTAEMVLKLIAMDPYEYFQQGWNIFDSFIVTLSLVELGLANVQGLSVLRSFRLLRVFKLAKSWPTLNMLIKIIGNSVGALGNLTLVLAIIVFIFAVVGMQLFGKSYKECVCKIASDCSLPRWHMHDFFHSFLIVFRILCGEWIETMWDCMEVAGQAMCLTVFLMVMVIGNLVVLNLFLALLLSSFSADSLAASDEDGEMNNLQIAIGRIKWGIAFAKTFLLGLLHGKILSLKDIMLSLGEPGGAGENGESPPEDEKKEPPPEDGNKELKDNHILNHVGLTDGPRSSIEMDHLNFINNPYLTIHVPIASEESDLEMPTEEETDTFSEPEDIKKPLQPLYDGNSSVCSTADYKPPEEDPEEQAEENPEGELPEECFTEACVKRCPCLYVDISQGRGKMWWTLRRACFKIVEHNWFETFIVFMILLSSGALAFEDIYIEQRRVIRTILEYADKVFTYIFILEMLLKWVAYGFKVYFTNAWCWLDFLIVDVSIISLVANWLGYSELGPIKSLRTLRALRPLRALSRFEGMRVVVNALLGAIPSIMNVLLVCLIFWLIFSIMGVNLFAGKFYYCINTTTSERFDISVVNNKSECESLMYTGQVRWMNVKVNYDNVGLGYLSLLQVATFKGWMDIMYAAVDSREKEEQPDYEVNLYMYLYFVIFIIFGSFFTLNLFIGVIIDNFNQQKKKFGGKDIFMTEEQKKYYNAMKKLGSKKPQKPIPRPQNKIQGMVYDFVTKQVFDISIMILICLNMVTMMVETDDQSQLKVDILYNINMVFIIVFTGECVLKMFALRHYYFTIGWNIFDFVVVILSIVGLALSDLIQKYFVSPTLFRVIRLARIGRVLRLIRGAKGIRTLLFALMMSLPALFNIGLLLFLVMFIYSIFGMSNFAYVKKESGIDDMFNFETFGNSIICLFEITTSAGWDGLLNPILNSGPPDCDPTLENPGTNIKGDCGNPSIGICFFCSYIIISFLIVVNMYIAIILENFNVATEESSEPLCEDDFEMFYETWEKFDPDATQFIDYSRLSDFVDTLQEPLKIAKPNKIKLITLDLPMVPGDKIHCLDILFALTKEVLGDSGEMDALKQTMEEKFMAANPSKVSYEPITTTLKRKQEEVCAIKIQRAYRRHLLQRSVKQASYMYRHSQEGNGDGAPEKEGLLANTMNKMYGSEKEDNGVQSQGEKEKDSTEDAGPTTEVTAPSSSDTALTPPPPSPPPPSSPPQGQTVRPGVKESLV
Assay [3] has as its target mNav1.7 (Mus musculus, UniProt Q62205). The following applies: for pIC50: PatchXpress, tonic block, mouse Nav1.7, read-out: PX mNav1.7 Tonic IC50; for mNav1.7/hNav1.7: ratio of PX tonic IC50, mouse Nav1.7 over human Nav1.7.
Assay [4] concerns the target hNav1.7 (Homo sapiens, UniProt Q15858). It is filed as cell-based. The following applies: PatchXpress, tonic block, human Nav1.7; read-out: PX hNav1.7 Tonic IC50.

Each structure is given as a SMILES string. pIC50: −log10 of the molar value.

What is called pIC50 is the negative decadic logarithm of the IC50, by convention in mol/L.

Chain of mNav1.7 (Q62205 whole entry): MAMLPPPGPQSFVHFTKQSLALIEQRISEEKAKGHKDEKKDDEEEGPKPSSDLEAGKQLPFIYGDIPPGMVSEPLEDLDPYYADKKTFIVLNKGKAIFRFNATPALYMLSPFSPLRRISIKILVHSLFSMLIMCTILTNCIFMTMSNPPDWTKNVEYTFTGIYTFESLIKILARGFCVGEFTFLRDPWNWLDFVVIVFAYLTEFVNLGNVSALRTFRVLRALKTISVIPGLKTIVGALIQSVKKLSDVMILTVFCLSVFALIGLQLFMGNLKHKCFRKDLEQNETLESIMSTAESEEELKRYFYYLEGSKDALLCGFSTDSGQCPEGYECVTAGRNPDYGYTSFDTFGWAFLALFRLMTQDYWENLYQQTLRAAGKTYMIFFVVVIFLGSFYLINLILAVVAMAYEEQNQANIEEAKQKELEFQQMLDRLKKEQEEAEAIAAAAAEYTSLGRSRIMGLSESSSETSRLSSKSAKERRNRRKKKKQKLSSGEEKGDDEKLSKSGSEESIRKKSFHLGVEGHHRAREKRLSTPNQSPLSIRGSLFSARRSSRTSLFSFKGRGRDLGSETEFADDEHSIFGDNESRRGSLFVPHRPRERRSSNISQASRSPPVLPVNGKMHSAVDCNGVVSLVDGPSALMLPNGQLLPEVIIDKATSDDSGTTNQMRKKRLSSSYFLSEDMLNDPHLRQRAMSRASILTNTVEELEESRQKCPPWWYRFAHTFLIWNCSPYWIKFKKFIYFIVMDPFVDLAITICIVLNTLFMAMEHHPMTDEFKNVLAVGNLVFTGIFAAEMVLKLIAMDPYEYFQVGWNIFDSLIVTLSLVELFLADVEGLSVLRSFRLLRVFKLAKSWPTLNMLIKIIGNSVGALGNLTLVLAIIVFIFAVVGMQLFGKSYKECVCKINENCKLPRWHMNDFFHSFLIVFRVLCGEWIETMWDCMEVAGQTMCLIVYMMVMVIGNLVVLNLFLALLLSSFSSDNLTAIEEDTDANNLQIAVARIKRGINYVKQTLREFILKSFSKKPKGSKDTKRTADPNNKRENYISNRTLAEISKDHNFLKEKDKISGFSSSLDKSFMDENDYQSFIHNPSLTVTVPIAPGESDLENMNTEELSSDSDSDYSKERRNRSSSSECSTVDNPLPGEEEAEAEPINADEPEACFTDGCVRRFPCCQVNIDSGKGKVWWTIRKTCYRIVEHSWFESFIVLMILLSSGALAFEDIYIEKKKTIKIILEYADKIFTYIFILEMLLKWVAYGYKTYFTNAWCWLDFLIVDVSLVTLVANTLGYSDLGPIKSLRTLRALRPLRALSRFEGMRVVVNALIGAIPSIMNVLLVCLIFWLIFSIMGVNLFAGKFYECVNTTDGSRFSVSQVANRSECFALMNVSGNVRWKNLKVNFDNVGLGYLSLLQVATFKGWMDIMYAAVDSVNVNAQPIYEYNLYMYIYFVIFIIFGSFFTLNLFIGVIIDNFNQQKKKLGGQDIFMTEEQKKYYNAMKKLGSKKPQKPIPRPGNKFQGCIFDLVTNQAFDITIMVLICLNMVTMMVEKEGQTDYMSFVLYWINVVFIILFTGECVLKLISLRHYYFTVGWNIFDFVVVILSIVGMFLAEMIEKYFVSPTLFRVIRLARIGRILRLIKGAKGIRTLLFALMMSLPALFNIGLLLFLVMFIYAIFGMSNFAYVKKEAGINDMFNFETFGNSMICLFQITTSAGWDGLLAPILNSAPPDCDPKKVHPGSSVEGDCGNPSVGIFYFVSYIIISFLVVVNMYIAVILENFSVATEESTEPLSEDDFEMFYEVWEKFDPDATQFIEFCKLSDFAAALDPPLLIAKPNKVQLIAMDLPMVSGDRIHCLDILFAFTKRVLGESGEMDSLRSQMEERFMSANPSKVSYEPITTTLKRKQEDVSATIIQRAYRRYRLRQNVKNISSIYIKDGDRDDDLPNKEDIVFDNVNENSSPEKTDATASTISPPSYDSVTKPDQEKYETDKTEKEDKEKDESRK

For the compound `C#CC[C@H](N)C(=O)NCCCC[C@@H]1NC(=O)[C@H](CCCNC(=N)N)NC(=O)[C@H](CCCCN)NC(=O)[C@H](CO)NC(=O)[C@H](CC(=O)O)NC(=O)[C@@H]2CSSC[C@@H]3NC(=O)[C@H](CCCNC(=N)N)NC(=O)[C@H](CC(C)C)NC(=O)CNC(=O)[C@H](CCC(=O)O)NC(=O)[C@H](CSSC[C@H](NC(=O)[C@H](Cc4ccc(O)cc4)NC(=O)[C@@H](N)CC#N)C(=O)N[C@@H](CCC(N)=O)C(=O)N[C@@H](CCCCN)C(=O)N[C@@H](Cc4c[nH]c5ccccc45)C(=O)N[C@@H](CCCC)C(=O)N[C@@H](Cc4c[nH]c5ccccc45)C(=O)N[C@@H]([C@@H](C)O)C(=O)N2)NC(=O)[C@H](CSSC[C@@H](C(=O)N[C@@H](CCCNC(=N)N)C(=O)N[C@@H](CCCCN)C(=O)N[C@@H](CCC(=O)O)C(=O)N[C@H](C(N)=O)[C@@H](C)CC)NC(=O)[C@H](Cc2c[nH]c4ccccc24)NC(=O)[C@H](CC(C)C)NC(=O)[C@H](CCCCN)NC3=O)NC1=O`, in assay [1], the pIC50 is 8.56 and the rNav1.7/hNav1.7 is on record as 1.71. Besides, in assay [2], the pIC50 is 7.20 and the mNav1.4/mNav1.7 was 6.4. Further, in assay [3], the pIC50 was 8.01 and the mNav1.7/hNav1.7 is 6.15.
On to `C#CC[C@@H]1NC(=O)[C@@H]2CSSC[C@H](NC(=O)[C@H](Cc3ccc(O)cc3)NC(=O)[C@@H](N)CC#N)C(=O)N[C@@H](CCC(N)=O)C(=O)N[C@@H](CCCCN)C(=O)N[C@@H](Cc3c[nH]c4ccccc34)C(=O)N[C@@H](CCCC)C(=O)N[C@@H](Cc3c[nH]c4ccccc34)C(=O)N[C@@H]([C@@H](C)O)C(=O)N[C@H]3CSSC[C@H](NC(=O)[C@H](CCCNC(=N)N)NC(=O)[C@H](CC(C)C)NC(=O)CNC1=O)C(=O)N[C@@H](CCCCN)C(=O)N[C@@H](CC(C)C)C(=O)N[C@@H](Cc1c[nH]c4ccccc14)C(=O)N[C@H](C(=O)N[C@@H](CCCNC(=N)N)C(=O)N[C@@H](CCCCN)C(=O)N[C@@H](CCC(=O)O)C(=O)N[C@H](C(N)=O)[C@@H](C)CC)CSSC[C@H](NC(=O)[C@H](C)NC(=O)[C@H](CCCNC(=N)N)NC(=O)[C@H](CCCCN)NC(=O)[C@H](CO)NC(=O)[C@H](CC(=O)O)NC3=O)C(=O)N2` [CyA-[Nle6, Pra17, Glu28]JzTx-V(1-29)], for which the values for the pIC50 in assay [1], in assay [2] and in assay [3] were 8.85, 7.49 and 8.32, respectively.
For `CCCC[C@@H]1NC(=O)[C@H](Cc2c[nH]c3ccccc23)NC(=O)[C@H](CCCCN)NC(=O)[C@H](CCC(N)=O)NC(=O)[C@@H](NC(=O)[C@H](Cc2ccc(O)cc2)NC(=O)[C@@H](N)CC(C)C)CSSC[C@@H]2NC(=O)[C@@H]3CSSC[C@@H](C(=O)N[C@@H](CCCNC(=N)N)C(=O)N[C@@H](CCCCN)C(=O)N[C@H](C(=O)N[C@H](C(N)=O)[C@@H](C)CC)[C@@H](C)CC)NC(=O)[C@H](Cc4c[nH]c5ccccc45)NC(=O)[C@H](CC(C)C)NC(=O)[C@H](CCCCN)NC(=O)[C@H](CSSC[C@H](NC(=O)[C@H]([C@@H](C)O)NC(=O)[C@H](Cc4c[nH]c5ccccc45)NC1=O)C(=O)N[C@@H](CC(=O)O)C(=O)N[C@@H](CO)C(=O)N[C@@H](CCCCN)C(=O)N[C@@H](CCCNC(=N)N)C(=O)N[C@@H](C)C(=O)N3)NC(=O)[C@H](CCCNC(=N)N)NC(=O)[C@H](CC(C)C)NC(=O)CNC(=O)[C@H](CCC(=O)O)NC2=O` [Leu-[Nle6]JzTx-V(1-29)], in assay [2], the pIC50 was 8.74 and the mNav1.4/mNav1.7 worked out at 1.4. Besides, in assay [4], the pIC50 is 9.89. Further, in assay [3], the pIC50 is 8.88 and the mNav1.7/hNav1.7 came to 10.22.
`CCCC[C@@H]1NC(=O)[C@H](Cc2c[nH]c3ccccc23)NC(=O)[C@H](CCCCN)NC(=O)[C@H](CCC(N)=O)NC(=O)[C@@H](NC(=O)[C@H](Cc2ccc(O)cc2)NC(=O)[C@@H](N)CCC)CSSC[C@@H]2NC(=O)[C@@H]3CSSC[C@@H](C(=O)N[C@@H](CCCNC(=N)N)C(=O)N[C@@H](CCCCN)C(=O)N[C@H](C(=O)N[C@H](C(N)=O)[C@@H](C)CC)[C@@H](C)CC)NC(=O)[C@H](Cc4c[nH]c5ccccc45)NC(=O)[C@H](CC(C)C)NC(=O)[C@H](CCCCN)NC(=O)[C@H](CSSC[C@H](NC(=O)[C@H]([C@@H](C)O)NC(=O)[C@H](Cc4c[nH]c5ccccc45)NC1=O)C(=O)N[C@@H](CC(=O)O)C(=O)N[C@@H](CO)C(=O)N[C@@H](CCCCN)C(=O)N[C@@H](CCCNC(=N)N)C(=O)N[C@@H](C)C(=O)N3)NC(=O)[C@H](CCCNC(=N)N)NC(=O)[C@H](CC(C)C)NC(=O)CNC(=O)[C@H](CCC(=O)O)NC2=O` [Nva-[Nle6]JzTx-V(1-29)]: the pIC50 in assay [2] was 8.34; in assay [4] it was 9.09.
Take `C#CC[C@H](N)C(=O)N[C@@H](CCC(=O)O)C(=O)N[C@H]1CSSC[C@@H]2NC(=O)[C@@H]3CSSC[C@@H](C(=O)N[C@@H](CCCNC(=N)N)C(=O)N[C@@H](CCCCN)C(=O)N[C@@H](CCC(=O)O)C(=O)N[C@H](C(N)=O)[C@@H](C)CC)NC(=O)[C@H](Cc4c[nH]c5ccccc45)NC(=O)[C@H](CC(C)C)NC(=O)[C@H](CCCCN)NC(=O)[C@H](CSSC[C@H](NC(=O)[C@H]([C@@H](C)O)NC(=O)[C@H](Cc4c[nH]c5ccccc45)NC(=O)[C@H](CCCC)NC(=O)[C@H](Cc4c[nH]c5ccccc45)NC(=O)[C@H](CCCCN)NC(=O)[C@H](CCC(N)=O)NC1=O)C(=O)N[C@@H](CC(=O)O)C(=O)N[C@@H](CO)C(=O)N[C@@H](CCCCN)C(=O)N[C@@H](CCCNC(=N)N)C(=O)N[C@@H](C)C(=O)N3)NC(=O)[C@H](CCCNC(=N)N)NC(=O)[C@H](CC(C)C)NC(=O)CNC(=O)[C@H](CCC(=O)O)NC2=O` [Pra-[Glu1, 28; Nle6]JzTx-V(1-29)]: in assay [1], the pIC50 was 8.86 and the rNav1.7/hNav1.7 came out at 1.22. Also, in assay [2], the pIC50 is 6.59 and the mNav1.4/mNav1.7 is recorded as 27. In assay [3], the pIC50 is 8.02 and the mNav1.7/hNav1.7 worked out at 8.41.
For `C#CC[C@H](N)C(=O)N[C@@H](Cc1ccc(O)cc1)C(=O)N[C@H]1CSSC[C@@H]2NC(=O)[C@@H]3CSSC[C@@H](C(=O)N[C@@H](CCCNC(=N)N)C(=O)N[C@@H](CCCCN)C(=O)N[C@H](C(=O)N[C@@H](Cc4c[nH]c5ccccc45)C(N)=O)[C@@H](C)CC)NC(=O)[C@H](Cc4c[nH]c5ccccc45)NC(=O)[C@H](CC(C)C)NC(=O)[C@H](CCCCN)NC(=O)[C@H](CSSC[C@H](NC(=O)[C@H]([C@@H](C)O)NC(=O)[C@H](Cc4c[nH]c5ccccc45)NC(=O)[C@H](CCCC)NC(=O)[C@H](Cc4c[nH]c5ccccc45)NC(=O)[C@H](CCCCN)NC(=O)[C@H](CCC(N)=O)NC1=O)C(=O)N[C@@H](CC(=O)O)C(=O)N[C@@H](CO)C(=O)N[C@@H](CCCCN)C(=O)N[C@@H](CCCNC(=N)N)C(=O)N[C@@H](C)C(=O)N3)NC(=O)[C@H](CCCNC(=N)N)NC(=O)[C@H](CC(C)C)NC(=O)CNC(=O)[C@H](CCC(=O)O)NC2=O` [Pra-[Nle6; Trp29]JzTx-V(1-29)], in assay [2], the negative-log IC50 (pIC50) is 8.01 and the mNav1.4/mNav1.7 is given as 0.91. Besides, in assay [3], the pIC50 is 7.97 and the mNav1.7/hNav1.7 is 2.23.
